Data taken from patent publication US10294202B2, “Pyrrolidinones as herbicides” (FMC Corporation, priority 2013, dated 2019).

What was measured:
[1] = system: morningglory; assay: Test A pre-/postemergence herbicide test; format: in vivo, Ipomoea spp.
How it was run: (§1)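 Planted in loam–sand blend; treated the same day preemergence by directed soil spray, while separately grown plants at one- to two-leaf stage got postemergence spray. Compared visually with untreated controls after approximately 10 days; 100 means complete control.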

[2] = system: barnyardgrass; assay: Test B flooded paddy test; format: in vivo, Echinochloa crus-galli; settings: Flood, scale of 0 to 100 where 0 is no effect and 100 is complete control
Experimental: (§2) Plant species in the flooded paddy test selected from rice (Oryza sativa), sedge, umbrella (small-flower umbrella sedge, Cyperus difformis), ducksalad (Heteranthera limosa), and barnyardgrass (Echinochloa crus-galli) were grown to the 2-leaf stage for testing. At time of treatment, test pots were flooded to 3 cm above the soil surface, treated by application of test compounds directly to the paddy water, and then maintained at that water depth for the duration of the test. Treated plants and controls were maintained in a greenhouse for 13 to 15 days, after which time all species were compared to controls and visually evaluated. Plant response ratings, summarized in Table B, are based on a scale of 0 to 100 where 0 is no effect and 100 is complete control. A dash (-) response means no test result.

[3] = system: crabgrass, large; assay: Test A pre-/postemergence herbicide test; format: in vivo, Digitaria sanguinalis
How it was run: as §1

[4] = system: rice; assay: Test B flooded paddy test; format: in vivo, Oryza sativa; settings: Flood, scale of 0 to 100 where 0 is no effect and 100 is complete control
Experimental: as §2

[5] = system: barnyardgrass; assay: Test A pre-/postemergence herbicide test; format: in vivo, Echinochloa crus-galli
How it was run: as §1

[6] = system: wheat; assay: Test A pre-/postemergence herbicide test; format: in vivo, Triticum aestivum
How it was run: as §1

[7] = system: ducksalad; assay: Test B flooded paddy test; format: in vivo, Heteranthera limosa; settings: Flood, scale of 0 to 100 where 0 is no effect and 100 is complete control
How it was run: (§3)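 Scoring: visual, compared with untreated controls, 0 = no effect through 100 = complete control, taken 13 to 15 days after treatment in the greenhouse. Compounds had been added to paddy water over soil flooded 3 cm deep at the plants' 2-leaf stage.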

[8] = system: velvetleaf; assay: Test A pre-/postemergence herbicide test; format: in vivo, Abutilon theophrasti
How it was run: as §1

[9] = system: corn; assay: Test A pre-/postemergence herbicide test; format: in vivo, Zea mays
How it was run: as §1

[10] = system: pigweed; assay: Test A pre-/postemergence herbicide test; format: in vivo, Amaranthus retroflexus
How it was run: as §1

[11] = system: sedge, umbrella; assay: Test B flooded paddy test; format: in vivo, Cyperus difformis; settings: Flood, scale of 0 to 100 where 0 is no effect and 100 is complete control
How it was run: as §3

[12] = system: giant foxtail; assay: Test A pre-/postemergence herbicide test; format: in vivo, Setaria faberii
How it was run: as §1

[13] = Postemergence, 125 g ai/ha, 0 to 100 scale, 0 is no effect, 100 is complete control
[14] = Postemergence, 500 g ai/ha, 0 to 100 scale (0 no effect, 100 complete control)
[15] = Preemergence, 125 g ai/ha, 0 to 100 scale where 0 is no effect and 100 is complete control
[16] = preemergence, 500 g ai/ha, 0 to 100 scale, 0 is no effect and 100 is complete control
[17] = Postemergence, 125 g ai/ha, 0 to 100 scale, 0 no effect, 100 complete control
[18] = Preemergence, 125 g ai/ha, visual rating on 0 to 100 scale (0 no effect, 100 complete control)
[19] = preemergence, 500 g ai/ha, 0 to 100 scale
[20] = preemergence, 500 g ai/ha, 0 to 100 scale (0 no effect, 100 complete control)
[21] = Postemergence, 1000 g ai/ha, 0 to 100 scale (0 no effect, 100 complete control)
[22] = Preemergence, 1000 g ai/ha, visual rating on 0 to 100 scale (0 no effect, 100 complete control), approx. 10 days

O=C1NCC(c2ccc(C(F)(F)F)cc2F)C1C(=O)Nc1ccccc1F (racemic) [Compound 259]
70: Plant response rating, Barnyardgrass [5, 14] | Plant response rating, Foxtail, Giant [12, 14]
90: Plant response rating, Crabgrass, Large [3, 14] | Plant response rating, Crabgrass, Large [3, 16] | Plant response rating, Ducksalad ([7]; 1000 g ai/ha) | Plant response rating, Foxtail, Giant [12, 16]
0: Plant response rating, Morningglory [1, 13] | Plant response rating, Morningglory [1, 14] | Plant response rating, Morningglory [1, 15] | Plant response rating, Morningglory [1, 16] | Plant response rating, Wheat [6, 13] | Plant response rating, Wheat [6, 14] | Plant response rating, Wheat [6, 15] | Plant response rating, Wheat [6, 16] | Plant response rating, Velvetleaf [8, 13] | Plant response rating, Velvetleaf [8, 14] | Plant response rating, Velvetleaf [8, 15] | Plant response rating, Velvetleaf [8, 16] | Plant response rating, Corn [9, 13] | Plant response rating, Corn [9, 14] | Plant response rating, Corn [9, 15] | Plant response rating, Corn [9, 16] | Plant response rating, Pigweed [10, 13] | Plant response rating, Pigweed [10, 14] | Plant response rating, Pigweed [10, 15] | Plant response rating, Pigweed [10, 16]
80: Plant response rating, Crabgrass, Large [3, 13] | Plant response rating, Barnyardgrass [5, 16]
20: Plant response rating, Barnyardgrass ([2]; 1000 g ai/ha)
60: Plant response rating, Foxtail, Giant [12, 15]
50: Plant response rating, Barnyardgrass [5, 13] | Plant response rating, Foxtail, Giant [12, 13]
10: Plant response rating, Rice ([4]; 1000 g ai/ha) | Plant response rating, Barnyardgrass [5, 15] | Plant response rating, Sedge, Umbrella ([11]; 1000 g ai/ha)

O=C1NCC(c2ccc(F)c(F)c2)C1C(=O)Nc1cccc(F)c1C(F)(F)F (stereo not drawn) [Compound 67]
90: Plant response rating, Crabgrass, Large [3, 14] | Crabgrass, Large plant response rating [3, 18] | Plant response rating, Crabgrass, Large [3, 19] | Plant response rating, Foxtail, Giant [12, 14] | Plant response rating, Foxtail, Giant [12, 19]
60: Plant response rating, Barnyardgrass [5, 14]
80: Plant response rating, Foxtail, Giant [12, 17] | Foxtail, Giant plant response rating [12, 18]
30: Barnyardgrass plant response rating [5, 18]
40: Plant response rating, Barnyardgrass [5, 17]
70: Plant response rating, Barnyardgrass [5, 20] | Plant response rating, Ducksalad ([7]; 250 g ai/ha)
0: Plant response rating, Morningglory [1, 17] | Plant response rating, Morningglory [1, 14] | Morningglory plant response rating [1, 18] | Plant response rating, Morningglory [1, 19] | Plant response rating, Barnyardgrass ([2]; 250 g ai/ha) | Plant response rating, Rice ([4]; 250 g ai/ha) | Plant response rating, Wheat [6, 17] | Plant response rating, Wheat [6, 14] | Wheat plant response rating [6, 18] | Plant response rating, Wheat [6, 19] | Plant response rating, Velvetleaf [8, 17] | Plant response rating, Velvetleaf [8, 14] | Velvetleaf plant response rating [8, 18] | Plant response rating, Velvetleaf [8, 19] | Plant response rating, Corn [9, 17] | Plant response rating, Corn [9, 14] | Corn plant response rating [9, 18] | Plant response rating, Corn [9, 19] | Plant response rating, Pigweed [10, 17] | Pigweed plant response rating [10, 18] | Plant response rating, Pigweed [10, 19]
20: Plant response rating, Pigweed [10, 14]
50: Plant response rating, Crabgrass, Large [3, 17] | Plant response rating, Sedge, Umbrella ([11]; 250 g ai/ha)

O=C1NCC(c2ccc(F)c(F)c2)C1C(=O)Nc1ccc[nH]c1=O (racemic) [Compound 97]
70: Plant response rating, Ducksalad ([7]; 250 g ai/ha)
50: Plant response rating, Barnyardgrass ([2]; 250 g ai/ha) | Plant response rating, Rice ([4]; 250 g ai/ha)
75: Plant response rating, Sedge, Umbrella ([11]; 250 g ai/ha)
0: Plant response rating, Morningglory [1, 17] | Plant response rating, Morningglory [1, 14] | Morningglory plant response rating [1, 18] | Plant response rating, Morningglory [1, 19] | Plant response rating, Crabgrass, Large [3, 17] | Plant response rating, Crabgrass, Large [3, 14] | Crabgrass, Large plant response rating [3, 18] | Plant response rating, Crabgrass, Large [3, 19] | Plant response rating, Barnyardgrass [5, 17] | Plant response rating, Barnyardgrass [5, 14] | Barnyardgrass plant response rating [5, 18] | Plant response rating, Barnyardgrass [5, 20] | Plant response rating, Wheat [6, 17] | Plant response rating, Wheat [6, 14] | Wheat plant response rating [6, 18] | Plant response rating, Wheat [6, 19] | Plant response rating, Velvetleaf [8, 17] | Plant response rating, Velvetleaf [8, 14] | Velvetleaf plant response rating [8, 18] | Plant response rating, Velvetleaf [8, 19] | Plant response rating, Corn [9, 17] | Plant response rating, Corn [9, 14] | Corn plant response rating [9, 18] | Plant response rating, Corn [9, 19] | Plant response rating, Pigweed [10, 17] | Plant response rating, Pigweed [10, 14] | Pigweed plant response rating [10, 18] | Plant response rating, Pigweed [10, 19] | Plant response rating, Foxtail, Giant [12, 17] | Plant response rating, Foxtail, Giant [12, 14] | Foxtail, Giant plant response rating [12, 18] | Plant response rating, Foxtail, Giant [12, 19]

O=C1NCC(c2ccc(F)c(F)c2)C1C(=O)Nc1ccccc1 (racemic) [Compound 30]
80: Plant response rating, Crabgrass, Large [3, 21] | Plant response rating, Foxtail, Giant [12, 21]
0: Plant response rating, Morningglory [1, 21] | Plant response rating, Morningglory [1, 22] | Plant response rating, Barnyardgrass ([2]; 250 g ai/ha) | Plant response rating, Rice ([4]; 250 g ai/ha) | Plant response rating, Wheat [6, 21] | Plant response rating, Wheat [6, 22] | Plant response rating, Ducksalad ([7]; 250 g ai/ha) | Plant response rating, Velvetleaf [8, 21] | Plant response rating, Velvetleaf [8, 22] | Plant response rating, Corn [9, 21] | Plant response rating, Corn [9, 22] | Plant response rating, Pigweed [10, 21] | Plant response rating, Pigweed [10, 22] | Plant response rating, Sedge, Umbrella ([11]; 250 g ai/ha)
90: Plant response rating, Crabgrass, Large [3, 22] | Plant response rating, Barnyardgrass [5, 21] | Plant response rating, Barnyardgrass [5, 22] | Plant response rating, Foxtail, Giant [12, 22]

O=C1NCC(c2ccc(C(F)(F)F)c(F)c2)C1C(=O)Nc1ccccc1C(F)(F)F (racemic) [Compound 248]
55: Plant response rating, Barnyardgrass ([2]; 1000 g ai/ha)
80: Plant response rating, Barnyardgrass [5, 16] | Plant response rating, Foxtail, Giant [12, 15]
50: Plant response rating, Crabgrass, Large [3, 13] | Plant response rating, Barnyardgrass [5, 14] | Plant response rating, Foxtail, Giant [12, 14]
30: Plant response rating, Barnyardgrass [5, 15] | Plant response rating, Foxtail, Giant [12, 13]
95: Plant response rating, Ducksalad ([7]; 1000 g ai/ha)
90: Plant response rating, Crabgrass, Large [3, 15] | Plant response rating, Crabgrass, Large [3, 16] | Plant response rating, Foxtail, Giant [12, 16]
70: Plant response rating, Crabgrass, Large [3, 14]
0: Plant response rating, Morningglory [1, 13] | Plant response rating, Morningglory [1, 14] | Plant response rating, Morningglory [1, 15] | Plant response rating, Morningglory [1, 16] | Plant response rating, Rice ([4]; 1000 g ai/ha) | Plant response rating, Wheat [6, 13] | Plant response rating, Wheat [6, 14] | Plant response rating, Wheat [6, 15] | Plant response rating, Wheat [6, 16] | Plant response rating, Velvetleaf [8, 13] | Plant response rating, Velvetleaf [8, 14] | Plant response rating, Velvetleaf [8, 15] | Plant response rating, Velvetleaf [8, 16] | Plant response rating, Corn [9, 13] | Plant response rating, Corn [9, 15] | Plant response rating, Corn [9, 16] | Plant response rating, Pigweed [10, 13] | Plant response rating, Pigweed [10, 14] | Plant response rating, Pigweed [10, 15] | Plant response rating, Pigweed [10, 16] | Plant response rating, Sedge, Umbrella ([11]; 1000 g ai/ha)
20: Plant response rating, Barnyardgrass [5, 13] | Plant response rating, Corn [9, 14]

O=C1NCC(c2ccc(F)c(F)c2)C1C(=O)Nc1cccc(Cl)c1F (racemic) [Compound 104]
70: Plant response rating, Barnyardgrass ([2]; 1000 g ai/ha) | Plant response rating, Foxtail, Giant [12, 21]
20: Plant response rating, Wheat [6, 22] | Plant response rating, Corn [9, 22]
90: Plant response rating, Crabgrass, Large [3, 22] | Plant response rating, Foxtail, Giant [12, 22]
0: Plant response rating, Morningglory [1, 21] | Plant response rating, Morningglory [1, 22] | Plant response rating, Rice ([4]; 1000 g ai/ha) | Plant response rating, Wheat [6, 21] | Plant response rating, Velvetleaf [8, 22] | Plant response rating, Corn [9, 21] | Plant response rating, Pigweed [10, 21] | Plant response rating, Pigweed [10, 22] | Plant response rating, Sedge, Umbrella ([11]; 1000 g ai/ha)
10: Plant response rating, Velvetleaf [8, 21]
95: Plant response rating, Ducksalad ([7]; 1000 g ai/ha)
80: Plant response rating, Crabgrass, Large [3, 21] | Plant response rating, Barnyardgrass [5, 21] | Plant response rating, Barnyardgrass [5, 22]
